Source: article PMC6449294, “SNAPshots of the MCHR1: a Comparison Between the PET-Tracers [^18F]FE@SNAP and [^11C]SNAP-7941” (Molecular Imaging and Biology, 2018)

Legend:
[1] = biological target: T1, human serum albumin (HSA) (Homo sapiens, UniProt P02768); assay: Plasma protein binding using bioaffinity chromatography (CHIRALPAK HSA); format: in vitro ADME; settings: bioaffinity chromatography on HSA stationary phase
T1 construct: purchased Daicel Chemical Industries CHIRALPAK HSA, column-batch H13L-2405
Procedure: The binding of (±)-SNAP-7941 and FE@SNAP to human serum albumin (HSA) was examined by bioaffinity chromatography according to a previously published manuscript. In short, the analytes were diluted in 2-propanol and ammonium acetate buffer (0.5 mg/ml) and injected on the CHIRALPAK®HSA stationary phase (50 × 3 mm, 5 μm pore size, column-batch: H13L-2405, Daicel Chemical Industries, West Chester, PA, USA). Prior the experiments, the column was calibrated with reference standards, and the resulting regression equation was used to convert the logarithmic capacity factors (log(k′)) to the percent of plasma protein binding (%PPB). The calibration curves, as well as the experiments, were performed by triplicate injections and at least three times.

MCHR1 = biological target: MCHR1; design: method as in PMID 28808288; settings: previous experiments; read-out: Affinity to MCHR1 (Ki); cited from earlier work

T1 sequence (P02768 25-609): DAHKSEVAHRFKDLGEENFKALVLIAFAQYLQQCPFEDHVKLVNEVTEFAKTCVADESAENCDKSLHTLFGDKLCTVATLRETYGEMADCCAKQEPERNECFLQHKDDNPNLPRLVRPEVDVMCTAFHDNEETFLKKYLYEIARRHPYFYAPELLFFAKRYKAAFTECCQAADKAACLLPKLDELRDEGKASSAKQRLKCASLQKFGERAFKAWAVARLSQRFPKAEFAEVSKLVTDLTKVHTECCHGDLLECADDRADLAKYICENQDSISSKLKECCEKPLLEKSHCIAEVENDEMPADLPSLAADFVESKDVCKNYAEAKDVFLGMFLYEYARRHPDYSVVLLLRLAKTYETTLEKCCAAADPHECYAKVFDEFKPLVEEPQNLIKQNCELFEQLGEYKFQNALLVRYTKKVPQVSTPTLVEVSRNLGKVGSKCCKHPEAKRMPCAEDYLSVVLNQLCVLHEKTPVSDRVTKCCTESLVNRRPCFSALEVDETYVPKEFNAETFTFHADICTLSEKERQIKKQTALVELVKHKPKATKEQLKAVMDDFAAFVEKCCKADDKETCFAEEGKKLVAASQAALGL

Row | Plasma protein binding (%PPB) / Binding to human serum albumin [1] [%] | SMILES | Ki (MCHR1) [nM]
1 | 80 ± 0.9 | COCC1=C(C(=O)OC)[C@H](c2ccc(F)c(F)c2)N(C(=O)NCCCN2CCC(c3cccc(NC(C)=O)c3)CC2)C(=O)N1 (racemic) [(±)-SNAP-7941, reference compound] | 3.91 ± 0.74
2 | 77 ± 0.2 | COCC1=C(C(=O)OCCF)C(c2ccc(F)c(F)c2)N(C(=O)NCCCN2CCC(c3cccc(NC(C)=O)c3)CC2)C(=O)N1 (racemic) [FE@SNAP, (±)-(2-fluoroethyl)-3-{[(3-{4-[3-(acetylamino)phenyl]-1-piperidinyl}propyl)amin]carbonyl}-4-(3,4-difluorophenyl)-6-(methoxymethyl)-2-oxo-1,2,3,4-tetra-hydro-5-pyrimidenecarboxylate] | 9.98 ± 1.12
